PMC6802645, “6′-Sialylgalactose inhibits vascular endothelial growth factor receptor 2-mediated angiogenesis” (Experimental & Molecular Medicine, 2019)

Target: T1, VEGFR-2 (vascular endothelial growth factor receptor 2) (Homo sapiens, UniProt P35968)
T1 construct: gene KDR; second and third IgG-like domains of VEGFR-2 (VEGFR-2 IG3)
Experiment: SPR (Biacore T100, VEGFR-2 IG3 immobilized by amine coupling on CM5)
Type: binding

T1 sequence (P35968 141-320 limits assumed): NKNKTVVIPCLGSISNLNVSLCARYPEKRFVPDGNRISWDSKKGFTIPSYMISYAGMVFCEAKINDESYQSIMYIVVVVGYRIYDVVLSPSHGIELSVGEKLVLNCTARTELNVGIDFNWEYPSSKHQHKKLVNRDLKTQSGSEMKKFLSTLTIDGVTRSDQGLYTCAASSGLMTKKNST

Row | Compound | Kd [nM]
1 | CC(=O)N[C@H]1[C@H]([C@H](O)[C@H](O)CO)OC(OC[C@H]2OC(O)[C@H](O)[C@@H](O)[C@H]2O)(C(=O)O)C[C@@H]1O (some centres unmarked) [6SG, 6′-sialylgalactose] | 2.35
2 | CC(=O)N[C@H]1[C@H]([C@H](O)[C@H](O)CO)OC(OC[C@H]2O[C@@H](O[C@H]3[C@H](O)[C@@H](O)C(O)O[C@@H]3CO)[C@H](O)[C@@H](O)[C@H]2O)(C(=O)O)C[C@@H]1O (some centres unmarked) [6SL, 6′-sialyllactose] | 3.05
